Converted amounts (≈) assume the structure as drawn.
Tests used:
Assay in all cases: In vitro antimicrobial activity, MIC by broth microdilution (CLSI)
Format in all cases: cell-based
[1] = test system: K. pneumoniae SR01358; conditions: Klebsiella pneumoniae, SR01358; KPC-2, ESBL and KPC-type carbapenemase producing strain; 5×10^5 cfu/mL; cation-adjusted Iso-Sensitest broth containing human Apo-transferrin; read-out: Minimum Inhibitory Concentration (MIC) K. pneumoniae SR01358
Procedure, shortened: (§1)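 MIC (μg/mL) by CLSI broth microdilution, inoculum 5×10^5 cfu/mL, in cation-adjusted Iso-Sensitest broth containing human apo-transferrin.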

[2] = test system: A. baumannii JMI7; conditions: Acinetobacter baumannii, JMI7; PER-1, OXA-23, 51, ESBL and OXA-type carbapenemase producing strain; 5×10^5 cfu/mL; cation-adjusted Iso-Sensitest broth containing human Apo-transferrin; read-out: Minimum Inhibitory Concentration (MIC) A. baumannii JMI:7
Procedure, shortened: as §1

[3] = test system: A. baumannii JMI2346; conditions: Acinetobacter baumannii, JMI2346; OXA-51, TEM, ESBL and OXA-type carbapenemase producing strain; 5×10^5 cfu/mL; cation-adjusted Iso-Sensitest broth containing human Apo-transferrin; read-out: Minimum Inhibitory Concentration (MIC) A. baumannii JMI:2346
Procedure, shortened: as §1

[4] = test system: E. Coli JMI1890; conditions: Escherichia coli; PER-1, TEM-1, ESBL producing strain; 5×10^5 cfu/mL; cation-adjusted Iso-Sensitest broth containing human Apo-transferrin; read-out: Minimum Inhibitory Concentration (MIC) E. Coli JMI:1890
Procedure, shortened: as §1

| MIC [1] | MIC [2] | MIC [3] | MIC [4] | Structure (SMILES) |
| --- | --- | --- | --- | --- |
| ≤ 0.031 µg/mL | 0.5 µg/mL | 2 µg/mL | 0.5 µg/mL | C[C@@H]1S[C@@H]2[C@H](NC(=O)/C(=N\OC(C)(C)C(=O)[O-])c3csc(N)n3)C(=O)N2C(C(=O)[O-])=C1C[N+]12CCC(CC1)N(C(=O)C(=O)c1ccc(O)c(O)c1)CC2.[Na+] [Compound I-108] |
| ≤ 0.031 µg/mL | 0.25 µg/mL | 4 µg/mL | 0.25 µg/mL | C[C@@H]1S[C@@H]2[C@H](NC(=O)/C(=N\OC(C)(C)C(=O)[O-])c3csc(N)n3)C(=O)N2C(C(=O)[O-])=C1C[N+]1(CCNC(=O)C(=O)c2ccc(O)c(O)c2Cl)CCCC1.[Na+] [Compound I-74] |
| ≤ 0.031 µg/mL | 1 µg/mL (≈ 1.2 µM) | 1 µg/mL (≈ 1.2 µM) | 0.125 µg/mL (≈ 0.15 µM) | CO/N=C(\C(=O)NCC12CC[N+](CC3=C(C(=O)O)N4C(=O)[C@@H](NC(=O)/C(=N\OC(C)(C)C(=O)[O-])c5csc(N)n5)[C@H]4S[C@H]3C)(CC1)C2)c1ccc(O)c(O)c1Cl [Compound I-104] |
| 0.125 µg/mL (≈ 0.165 µM) | 0.5 µg/mL (≈ 0.658 µM) | 4 µg/mL (≈ 5.26 µM) | 0.5 µg/mL (≈ 0.658 µM) | CC[N+](CC)(CCN1C(=O)c2ccc(O)c(O)c2C1=O)CC1=C(C(=O)O)N2C(=O)[C@@H](NC(=O)/C(=N\OC(C)(C)C(=O)[O-])c3csc(N)n3)[C@H]2S[C@H]1C [Compound I-36] |
| ≤ 0.031 µg/mL | 0.5 µg/mL (≈ 0.572 µM) | 8 µg/mL (≈ 9.16 µM) | 1 µg/mL (≈ 1.14 µM) | C[C@@H]1S[C@@H]2[C@H](NC(=O)/C(=N\OC(C)(C)C(=O)[O-])c3csc(N)n3)C(=O)N2C(C(=O)O)=C1C[N+]1(CCNC(=O)c2cn(C3CC3)c3cc(O)c(O)c(Cl)c3c2=O)CCCC1 [Compound I-90] |
| 0.125 µg/mL (≈ 0.165 µM) | 2 µg/mL (≈ 2.64 µM) | 8 µg/mL (≈ 10.6 µM) | 0.5 µg/mL (≈ 0.66 µM) | C[C@@H]1S[C@@H]2[C@H](NC(=O)/C(=N\OC(C)(C)C(=O)[O-])c3csc(N)n3)C(=O)N2C(C(=O)O)=C1C[N+]1(CCN2C(=O)c3ccc(O)c(O)c3C2=O)CCCC1 [Compound I-51] |
| 0.25 µg/mL | 0.5 µg/mL | 1 µg/mL | ≤ 0.031 µg/mL | C[C@@H]1S[C@@H]2[C@H](NC(=O)/C(=N\OC(C)(C)C(=O)[O-])c3csc(N)n3)C(=O)N2C(C(=O)[O-])=C1C[N+]12CCC(CNC(=O)c3cc(O)c(O)c(F)c3)(CC1)C2.[Na+] [Compound I-117] |
| ≤ 0.031 µg/mL | 0.5 µg/mL | 4 µg/mL | 0.25 µg/mL | C[C@@H]1S[C@@H]2[C@H](NC(=O)/C(=N\OC(C)(C)C(=O)[O-])c3csc(N)n3)C(=O)N2C(C(=O)[O-])=C1C[N+]12CCC[C@H]1CN(C(=O)C(=O)c1ccc(O)c(O)c1Cl)CC2.[Na+] (stereo partly drawn) [Compound I-76] |
| ≤ 0.031 µg/mL | 0.25 µg/mL | 4 µg/mL | 0.125 µg/mL | C[C@@H]1S[C@@H]2[C@H](NC(=O)/C(=N\OC(C)(C)C(=O)[O-])c3csc(N)n3)C(=O)N2C(C(=O)[O-])=C1C[N+]12CCC(CC1)N(C(=O)C(=O)c1ccc(O)c(O)c1Cl)CC2.[Na+] [Compound I-75] |
| 0.063 µg/mL (≈ 0.0809 µM) | 1 µg/mL (≈ 1.28 µM) | 4 µg/mL (≈ 5.14 µM) | 1 µg/mL (≈ 1.28 µM) | C[C@@H]1S[C@@H]2[C@H](NC(=O)/C(=N\OC(C)(C)C(=O)[O-])c3csc(N)n3)C(=O)N2C(C(=O)O)=C1C[N@+]12CCC[C@H]1CN(C(=O)c1ccc(O)c(O)c1Cl)CC2 [Compound I-41] |
| 0.25 µg/mL | 1 µg/mL | 16 µg/mL | 1 µg/mL | C[C@@H]1S[C@@H]2[C@H](NC(=O)/C(=N\OC(C)(C)C(=O)[O-])c3csc(N)n3)C(=O)N2C(C(=O)[O-])=C1C[N+]1(CCNC(=O)C(=O)c2cc(O)c(O)c(Cl)c2)CCCC1.[Na+] [Compound I-8] |
| ≤ 0.031 µg/mL | 0.5 µg/mL (≈ 0.642 µM) | 2 µg/mL (≈ 2.57 µM) | 0.25 µg/mL (≈ 0.321 µM) | C[C@@H]1S[C@@H]2[C@H](NC(=O)/C(=N\OC(C)(C)C(=O)[O-])c3csc(N)n3)C(=O)N2C(C(=O)O)=C1C[N+]12CCC(CNC(=O)c3cc(O)c(O)c(Cl)c3)(CC1)C2 [Compound I-142] |
| 0.125 µg/mL (≈ 0.163 µM) | 1 µg/mL (≈ 1.3 µM) | 4 µg/mL (≈ 5.21 µM) | 0.5 µg/mL (≈ 0.651 µM) | CC[N+](CC)(CCNC(=O)c1ccc(O)c(O)c1Cl)CC1=C(C(=O)O)N2C(=O)[C@@H](NC(=O)/C(=N\OC(C)(C)C(=O)[O-])c3csc(N)n3)[C@H]2S[C@H]1C [Compound I-37] |
| ≤ 0.031 µg/mL | 1 µg/mL | 8 µg/mL | 0.5 µg/mL | C[C@@H]1S[C@@H]2[C@H](NC(=O)/C(=N\OC(C)(C)C(=O)[O-])c3csc(N)n3)C(=O)N2C(C(=O)[O-])=C1C[N+]12CCC(CC1)N(C(=O)C(=O)c1cc(O)c(O)c(Cl)c1)CC2.[Na+] [Compound I-16] |

| Structure (SMILES) | MIC [1] | MIC [2] | MIC [3] | MIC [4] |
| --- | --- | --- | --- | --- |
| C[C@@H]1S[C@@H]2[C@H](NC(=O)/C(=N\O[C@@H](CC(=O)[O-])C(=O)[O-])c3csc(N)n3)C(=O)N2C(C(=O)[O-])=C1C[N@+]1(C)[C@@H]2CC[C@H]1C[C@@H](NC(=O)C(=O)c1cc(O)c(O)c(Cl)c1)C2.[Na+].[Na+] [Compound I-13] | 0.063 µg/mL | 2 µg/mL | 8 µg/mL | 1 µg/mL |
| C[C@@H]1S[C@@H]2[C@H](NC(=O)/C(=N\OC(C)(C)C(=O)[O-])c3csc(N)n3)C(=O)N2C(C(=O)[O-])=C1C[N@+]1(C)[C@@H]2CC[C@H]1C[C@@H](NC(=O)C(=O)c1cc(O)c(O)c(F)c1)C2.[Na+] [Compound I-83] | ≤ 0.031 µg/mL | 0.5 µg/mL | 2 µg/mL | 0.063 µg/mL |
| C[C@@H]1S[C@@H]2[C@H](NC(=O)/C(=N\OC(C)(C)C(=O)[O-])c3csc(N)n3)C(=O)N2C(C(=O)[O-])=C1C[N+]12CCC(CNC(=O)C(=O)c3ccc(O)c(O)c3Cl)(CC1)CC2.[Na+] [Compound I-3] | ≤ 0.031 µg/mL | 0.5 µg/mL | 2 µg/mL | 0.5 µg/mL |
| C[C@@H]1S[C@@H]2[C@H](NC(=O)/C(=N\OC(C)(C)C(=O)O)c3csc(N)n3)C(=O)N2C(C(=O)O)=C1C[N+]12CCC(CNC(=O)/C(=N\OC(C)(C)C(=O)[O-])c3ccc(O)c(O)c3Cl)(CC1)CC2 [Compound I-99] | ≤ 0.031 µg/mL | 2 µg/mL (≈ 2.17 µM) | 16 µg/mL (≈ 17.4 µM) | 1 µg/mL (≈ 1.09 µM) |
| C[C@@H]1S[C@@H]2[C@H](NC(=O)/C(=N\OC(C)(C)C(=O)[O-])c3csc(N)n3)C(=O)N2C(C(=O)[O-])=C1C[N+]12CCC(CN3C(=O)c4cc(O)c(O)cc4C3=O)(CC1)CC2.[Na+] [Compound I-73] | ≤ 0.031 µg/mL | 0.25 µg/mL | 2 µg/mL | 0.063 µg/mL |
| C[C@@H]1S[C@@H]2[C@H](NC(=O)/C(=N\OC(C)(C)C(=O)O)c3csc(N)n3)C(=O)N2C(C(=O)[O-])=C1C[N+]12CCC(Cn3cnc4cc(O)c(O)cc4c3=O)(CC1)CC2 [Compound I-150, (4S,6R,7R)-7-((Z)-2-(2-aminothiazol-4-yl)-2-(((2-carboxypropan-2-yl)oxy)imino)acetamido)-3-((4-((6,7-dihydroxy-4-oxoquinazolin-3(4H)-yl)methyl)quinuclidin-1-ium-1-yl)methyl)-4-methyl-8-oxo-5-thia-1-azabicyclo[4.2.0]oct-2-ene-2-carboxylate] | ≤ 0.031 µg/mL | 0.5 µg/mL (≈ 0.639 µM) | 2 µg/mL (≈ 2.55 µM) | 2 µg/mL (≈ 2.55 µM) |
| C[C@@H]1S[C@@H]2[C@H](NC(=O)/C(=N\OC(C)(C)C(=O)[O-])c3csc(N)n3)C(=O)N2C(C(=O)O)=C1C[N+]12CCC(CNC(=O)/C(=N\O)c3ccc(O)c(O)c3Cl)(CC1)CC2 [Compound I-94] | 0.063 µg/mL (≈ 0.0754 µM) | 1 µg/mL (≈ 1.2 µM) | 4 µg/mL (≈ 4.79 µM) | 0.5 µg/mL (≈ 0.599 µM) |
| C[C@@H]1S[C@@H]2[C@H](NC(=O)/C(=N\OC(C)(C)C(=O)[O-])c3csc(N)n3)C(=O)N2C(C(=O)[O-])=C1C[N+]12CCC(CNC(=O)c3cc(O)c(O)c(Cl)c3)(CC1)CC2.[Na+] [Compound I-60] | ≤ 0.031 µg/mL | 1 µg/mL | 4 µg/mL | 1 µg/mL |
| C[C@@H]1S[C@@H]2[C@H](NC(=O)/C(=N\OC(C)(C)C(=O)[O-])c3csc(N)n3)C(=O)N2C(C(=O)O)=C1C[N@+]1(C)[C@@H]2CC[C@H]1C[C@@H](NC(=O)c1cn(C3CC3)c3cc(O)c(O)c(Cl)c3c1=O)C2 [Compound I-120] | ≤ 0.031 µg/mL | 0.5 µg/mL (≈ 0.556 µM) | 2 µg/mL (≈ 2.22 µM) | 0.063 µg/mL (≈ 0.07 µM) |
| C[C@@H]1S[C@@H]2[C@H](NC(=O)/C(=N\OC(C)(C)C(=O)O)c3csc(N)n3)C(=O)N2C(C(=O)[O-])=C1C[N+]12CCC(Cn3cnc4cc(O)c(O)c(Cl)c4c3=O)(CC1)CC2 [Compound I-161, (4S,6R,7R)-7-((Z)-2-(2-aminothiazol-4-yl)-2-(((2-carboxypropan-2-yl)oxy)imino)acetamido)-3-((4-((5-chloro-6,7-dihydroxy-4-oxoquinazolin-3(4H)-yl)methyl)quinuclidin-1-ium-1-yl)methyl)-4-methyl-8-oxo-5-thia-1-azabicyclo[4.2.0]oct-2-ene-2-carboxylate] | ≤ 0.031 µg/mL | 0.25 µg/mL (≈ 0.306 µM) | 4 µg/mL (≈ 4.89 µM) | 0.125 µg/mL (≈ 0.153 µM) |

From patent US10174053B2, “2 substituted cephem compounds” (Glaxo Group Limited, priority 2012, dated 2019)
